Test results: article PMC9228270, “Design, Synthesis, In Silico Studies and Inhibitory Activity towards Bcr-Abl, BTK and FLT3-ITD of New 2,6,9-Trisubstituted Purine Derivatives as Potential Agents for the Treatment of Leukaemia” (Pharmaceutics, 2022)
“And” between values parts separate entries of the source, which are not always exact repeats. Identical values can stand only once.

Tests used:
[1] = target: Bcr-Abl1 (Homo sapiens, UniProt P00519); assay: Recombinant kinase radioassay, Abl; type: biochemical; settings: ATP 1 µM, at least three independent experiments, range 0.01–100 µM
[2] = target: T1, BTK (Homo sapiens, UniProt Q06187); assay: Recombinant kinase radioassay, BTK; type: biochemical; settings: recombinant kinase, radioassay, ATP 15 µM; at least three independent experiments, range 0.01–100 µM; read-out: IC50 BTK
T1 construct: purchased ProQinase
Procedure, shortened: (§1)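 Radiometric kinase assay: 0.05 µCi [γ-33P]ATP in HEPES pH 7.5 buffer with Mg2+/Mn2+, vanadate, DTT. Commercial BTK with 100 µM poly(Glu:Tyr 4:1), 15 µM ATP. In-house Cdk-2/cyclin E with 1 mg/mL histone H1, 15 µM ATP. H3PO4 stop, phosphocellulose capture, phosphorimager read.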

[3] = target: T2, FLT3-ITD (Homo sapiens, UniProt P36888, ITD); assay: Recombinant kinase radioassay, FLT3-ITD; type: biochemical; settings: recombinant kinase, radioassay; at least three independent experiments, range 0.01–100 µM; read-out: IC50 FLT3-ITD
T2 sequence (P36888 27-993): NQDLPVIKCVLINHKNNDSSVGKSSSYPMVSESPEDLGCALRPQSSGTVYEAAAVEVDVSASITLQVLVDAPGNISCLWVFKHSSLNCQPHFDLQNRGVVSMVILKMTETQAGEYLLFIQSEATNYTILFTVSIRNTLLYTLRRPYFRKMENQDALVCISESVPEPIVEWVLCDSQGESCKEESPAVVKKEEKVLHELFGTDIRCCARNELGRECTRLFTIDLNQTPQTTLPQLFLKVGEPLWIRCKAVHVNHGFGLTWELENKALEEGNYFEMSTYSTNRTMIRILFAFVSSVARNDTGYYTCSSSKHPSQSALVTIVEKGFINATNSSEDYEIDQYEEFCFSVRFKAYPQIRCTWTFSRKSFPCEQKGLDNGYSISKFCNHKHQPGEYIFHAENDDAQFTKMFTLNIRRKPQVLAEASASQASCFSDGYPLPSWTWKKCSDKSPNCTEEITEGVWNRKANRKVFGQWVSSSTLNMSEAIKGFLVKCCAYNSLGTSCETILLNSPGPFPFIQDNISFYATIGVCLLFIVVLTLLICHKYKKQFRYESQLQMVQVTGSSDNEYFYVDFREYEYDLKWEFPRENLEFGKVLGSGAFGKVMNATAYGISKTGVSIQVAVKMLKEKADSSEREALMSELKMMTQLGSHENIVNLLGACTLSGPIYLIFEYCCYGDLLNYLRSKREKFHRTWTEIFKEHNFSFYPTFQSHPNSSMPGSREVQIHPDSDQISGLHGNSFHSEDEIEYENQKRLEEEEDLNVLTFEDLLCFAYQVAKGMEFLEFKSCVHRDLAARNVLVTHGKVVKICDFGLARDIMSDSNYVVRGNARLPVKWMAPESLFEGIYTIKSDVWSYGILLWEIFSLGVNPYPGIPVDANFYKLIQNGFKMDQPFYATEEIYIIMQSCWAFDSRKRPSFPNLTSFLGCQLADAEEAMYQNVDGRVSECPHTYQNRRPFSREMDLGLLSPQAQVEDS
Procedure, shortened: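 FLT3-ITD kinase, purchased from ProQinase, was tested in a standard radioassay with 100 µM poly (Glu:Tyr; 4:1) substrate, 0.05 µCi [γ-^33P]ATP and test compound in buffer of 60 mM HEPES-NaOH pH 7.5, 3 mM MgCl2, 3 mM MnCl2, 3 µM Na orthovanadate, 1.2 mM DTT and 2.5 µg/50 µL PEG20.000. Phosphorylated substrate was separated on P-81 phosphocellulose and quantified with a FLA-7000 image analyser.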

[4] = target: T3, Cdk-2/cyclin E (Homo sapiens, UniProt P24941); assay: Recombinant kinase radioassay, Cdk-2/cyclin E; type: biochemical; settings: ATP 15 µM, at least three independent experiments, range 0.01–100 µM
T3 construct: made in house
Procedure, shortened: as §1

[5] = tested on: K562; assay: Cytotoxicity assay (resazurin), K562; type: cell-based; settings: Homo sapiens, 72 h, three independent experiments, range 0.1 to 25 µM
Method: (§2) Cytotoxicity assays for the purines were quantified using the resazurin method, a dye to measure redox reactions occurring in the mitochondria of live cells. The cells were treated by tested compounds (in triplicate, six different doses) for 72 h.

[6] = tested on: HL-60; assay: Cytotoxicity assay (resazurin), HL-60; type: cell-based; settings: Homo sapiens, 72 h, three independent experiments, range 0.1 to 25 µM
Method: as §2

[7] = tested on: MV4-11; assay: Cytotoxicity assay (resazurin), MV4-11; type: cell-based; settings: Homo sapiens, 72 h, three independent experiments, range 0.1 to 25 µM
Method: as §2

[8] = tested on: Ramos; assay: Cytotoxicity assay (resazurin), Ramos; type: cell-based; settings: Homo sapiens, 72 h, three independent experiments, range 0.1 to 25 µM
Method: as §2

[9] = tested on: CEM; assay: Cytotoxicity assay (resazurin), CEM; type: cell-based; settings: Homo sapiens, CCRF-CEM, 72 h, three independent experiments, range 0.1 to 25 µM
Method: as §2

[10] = tested on: BTK signalling in Ramos cells; assay: Immunoblotting of BTK signalling in anti-IgM-stimulated Ramos; type: cell-based; settings: immunoglobulin M-activated Ramos cells, 4 h, dose-dependent
Method: (§3) Protein changes in the treated cells were analysed using immunoblotting. Briefly, cell lysates were separated on SDS-polyacrylamide gels and electroblotted onto nitrocellulose membranes. After blocking, overnight incubation with specific primary antibodies and incubation with peroxidase-conjugated secondary antibodies, the peroxidase activity was detected with Super-Signal West Pico reagents (Thermo Scientific, Waltham, MA, USA) using a CCD camera LAS-4000 (Fujifilm). The following specific antibodies were purchased from Cell Signalling: anti-FLT3 (clone 8F2), anti-phospho-FLT3 Y589/591 (clone 30D4), anti-STAT5 (clone D2O6Y), anti-phospho-STAT5 Y694, anti-ERK1/2, anti-phospho-ERK1/2 T202/Y204, anti-Akt (clone C67E7), anti-phospho-Akt S473 (clone D9E), anti-phospho-Bcr Y177, anti-CrkL (clone 32H4), anti-phospho-CrkL Y207, anti-BTK (clone C82B8), anti-phospho-BTK Y223, anti-PLCγ2, anti-phospho-PLCγ2 Y1217, and anti-PARP-1 (clone 46D11). Anti-α-tubulin (clone DM1A) was purchased from Sigma Aldrich.
(§4) Based on their inhibitory effects on recombinant kinases as well as cytotoxic effects in relevant cell line models, the purine derivatives 4i, 5b and 5j were selected for further experiments to confirm the expected molecular mechanism of action. The candidate compounds were tested to determine changes in signalling pathways downstream of the oncogenic kinases in cells. […]

[11] = target: T4, FLT3-ITD (Homo sapiens, UniProt P36888); parameters: method as in PMID 29672049; settings: cited from earlier work
T4 sequence (P36888 27-993): T2 sequence (P36888 27-993)

[12] = tested on: Bcr-Abl signalling in K562 cells; assay: Immunoblotting of Bcr-Abl downstream signalling in K562; type: cell-based; settings: 4 h
Method: as §3, §4

[13] = tested on: K562 cells; assay: Flow cytometry cell cycle, K562; type: cell-based; settings: 24 h, sub-micromolar concentrations
Method: Cell cycle effects were measured using flow cytometric determination of DNA content. MV4-11 and K562 cells were treated with tested compounds for 24 h. After the staining with propidium iodide, the DNA content was analysed by flow cytometry using a 488 nm laser (BD FACS Verse with software BD FACSuite^TM, version 1.0.6.). The cell cycle distribution was analysed using ModFit LT (Verity Software House 5.0, Topsham, ME, USA).

[14] = tested on: caspase 3/7 activity in K562 cells; assay: Caspase-3/7 assay, K562; type: cell-based; settings: 24 h, at 1 µM
Method: MV4-11 and K562 cells were kept in a 96-well plate were treated with increasing concentrations of compound 4i and 5b for 24 h. After this period, caspase-3/7 assay buffer (150 mM HEPES pH 7.4, 450 mM NaCl, 150 mM KCl, 30 mM MgCl2, 1.2 mM EGTA, 1.5% Nonidet P40, 0.3% CHAPS, 30% sucrose, 30 mM DTT, and 3 mM PMSF) containing 150 µM peptide substrate Ac-DEVD-AMC (Enzo Life Sciences, Farmingdale, NY, USA) was added, and after 2 h incubation, the fluorescence of AMC was measured using a Fluoroskan Ascent microplate reader (Labsystems) at 346 nm/442 nm (excitation/emission).

[15] = tested on: PARP-1 cleavage in K562; assay: Immunoblotting of PARP-1 cleavage, K562; type: cell-based; settings: K562 cells, 4 h
Method: as §3, with “Anti-α-tubulin (clone DM1A) was purchased from Sigma Aldrich.” left out
Finally, we analysed the mechanism of cell death induced by the prepared compounds 4i and 5b. Proteolytic cleavage of PARP-1—a well-established protein involved in apoptosis—was analysed in K562 and MV4-11 treated with respective compounds for 4 h. […] The PARP-1 fragment was not detected in MV4-11 cells treated with 5b because the compound was not effective in inducing apoptosis after 4 h of treatment (Figure 14B).

Chain of Bcr-Abl1 (P00519 27-1130): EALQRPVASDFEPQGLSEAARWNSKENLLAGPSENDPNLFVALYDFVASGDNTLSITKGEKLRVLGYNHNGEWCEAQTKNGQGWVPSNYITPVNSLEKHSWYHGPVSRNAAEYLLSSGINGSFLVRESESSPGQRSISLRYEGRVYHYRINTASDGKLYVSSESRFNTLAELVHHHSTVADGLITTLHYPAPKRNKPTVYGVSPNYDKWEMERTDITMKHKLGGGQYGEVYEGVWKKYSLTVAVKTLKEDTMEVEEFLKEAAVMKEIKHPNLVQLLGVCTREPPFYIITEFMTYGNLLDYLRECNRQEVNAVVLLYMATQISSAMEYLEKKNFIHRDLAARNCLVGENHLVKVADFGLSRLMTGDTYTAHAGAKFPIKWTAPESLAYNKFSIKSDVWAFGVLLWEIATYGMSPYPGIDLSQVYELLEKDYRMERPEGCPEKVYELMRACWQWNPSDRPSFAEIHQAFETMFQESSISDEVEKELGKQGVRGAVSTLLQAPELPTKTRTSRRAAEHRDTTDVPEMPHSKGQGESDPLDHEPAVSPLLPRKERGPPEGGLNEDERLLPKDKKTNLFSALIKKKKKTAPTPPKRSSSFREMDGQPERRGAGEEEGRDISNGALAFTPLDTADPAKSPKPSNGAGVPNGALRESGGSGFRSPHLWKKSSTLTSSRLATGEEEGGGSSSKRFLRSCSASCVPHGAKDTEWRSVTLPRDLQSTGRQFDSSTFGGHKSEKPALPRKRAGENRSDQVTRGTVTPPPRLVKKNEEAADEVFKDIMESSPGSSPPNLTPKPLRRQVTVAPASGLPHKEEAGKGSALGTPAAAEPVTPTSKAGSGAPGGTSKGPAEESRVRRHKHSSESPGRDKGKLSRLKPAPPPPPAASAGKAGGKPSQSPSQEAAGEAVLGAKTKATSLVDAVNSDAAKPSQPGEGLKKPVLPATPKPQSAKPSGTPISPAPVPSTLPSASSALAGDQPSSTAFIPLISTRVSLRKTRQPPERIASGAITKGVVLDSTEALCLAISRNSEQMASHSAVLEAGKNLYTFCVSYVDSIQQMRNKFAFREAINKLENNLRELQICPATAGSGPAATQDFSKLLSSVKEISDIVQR
T1 sequence (Q06187 whole entry): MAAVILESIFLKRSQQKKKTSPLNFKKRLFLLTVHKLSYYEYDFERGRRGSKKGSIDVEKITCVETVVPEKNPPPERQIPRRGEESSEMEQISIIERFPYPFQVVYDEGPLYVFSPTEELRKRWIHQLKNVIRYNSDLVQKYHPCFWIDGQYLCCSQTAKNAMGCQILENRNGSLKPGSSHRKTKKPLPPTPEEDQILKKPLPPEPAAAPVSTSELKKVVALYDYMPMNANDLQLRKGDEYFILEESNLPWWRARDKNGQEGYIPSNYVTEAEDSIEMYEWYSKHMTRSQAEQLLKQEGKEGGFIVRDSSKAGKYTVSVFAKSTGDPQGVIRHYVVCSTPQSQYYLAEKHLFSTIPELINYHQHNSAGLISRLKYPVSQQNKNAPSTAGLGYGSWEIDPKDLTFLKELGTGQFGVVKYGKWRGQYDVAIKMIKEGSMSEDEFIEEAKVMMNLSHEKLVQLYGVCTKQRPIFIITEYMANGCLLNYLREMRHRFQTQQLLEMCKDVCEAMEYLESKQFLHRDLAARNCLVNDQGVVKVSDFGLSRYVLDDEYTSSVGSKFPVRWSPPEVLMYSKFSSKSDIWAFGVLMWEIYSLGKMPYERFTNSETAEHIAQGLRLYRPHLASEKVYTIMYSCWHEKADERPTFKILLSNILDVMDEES

| Structure (SMILES) | IC50 [1] [nM] | IC50 [2] | IC50 [3] [nM] | IC50 [4] [µM] | GI50 [5] [µM] | GI50 [6] [nM] | GI50 [7] [nM] | GI50 [8] [µM] | GI50 [9] [µM] | Levels of phosphorylated BTK and downstream targets PLCγ2 and Akt [10] | melting point [°C] | IC50 [11] [nM] | Concentration from which autophosphorylation of Bcr (pBcr) is inhibited [12] [µM] | Level of phosphorylated STAT5 (pSTAT5) and CrkL (pCrkL) [12] | Cell cycle effect [13] | Relative caspase 3/7 activity [14] | 89 kDa fragment of PARP-1 [15] |
| --- | --- | --- | --- | --- | --- | --- | --- | --- | --- | --- | --- | --- | --- | --- | --- | --- | --- |
| CCCCCCCCn1cnc2c(Nc3ccccc3)nc(Nc3ccc(N4CCN(C)CC4)cc3)nc21 [Compound 5j, N^2-(4-(4-Methylpiperazin-1-yl)phenyl)-9-octyl-N^6-phenyl-9H-purine-2,6-diamine] | > 100000 | < 580 nM and 410 nM | 20300 | 19 ± 1.55 | 8.19 ± 0.06 | 1250 ± 110 | 4450 ± 1480 | 14.2 ± 2.61 | 23.6 ± 2.01 | decreased | 171.3 to 173.5 | – | – | – | – | – | – |
| NC1CCC(Nc2nc(Nc3ccc(CN4CCOCC4)cc3)c3ncn(C4CCCC4)c3n2)CC1 (stereo not shown) [II] | – | – | – | – | – | – | – | – | – | – | – | 2 | – | – | – | – | – |
| CN1CCN(c2ccc(Nc3nc(Nc4ccc(C#N)cc4)c4ncn(CC5CC5)c4n3)cc2)CC1 [Compound 4i, 4-((9-(Cyclopropylmethyl)-2-((4-(4-methylpiperazin-1-yl)phenyl)amino)-9H-purin-6-yl)amino)benzonitrile] | 100 ± 30 | 910 ± 190 nM | 370 | 10.8 ± 1.6 | 1.03 ± 0.21 | 3170 ± 570 | 890 ± 70 | 1.49 ± 0.05 | 1.85 ± 0.1 | – | – | – | ≥ 0.08 | dose-dependently decreased | effectively induced G1 arrest | nearly five-fold increase | increased levels |
| CN1CCN(c2ccc(Nc3nc(Nc4ccc(OC(F)(F)F)cc4)c4ncn(CC5CC5)c4n3)cc2)CC1 [Compound 4h, 9-(Cyclopropylmethyl)-N^2-(4-(4-methylpiperazin-1-yl)phenyl)-N^6-(4-(trifluoromethoxy)phenyl)-9H-purine-2,6-diamine] | 390 ± 80 | 600 ± 220 nM | 750 | 18.2 ± 2.05 | 2.9 ± 0.91 | 1080 ± 310 | 2450 ± 90 | 11.7 ± 2.88 | 15 ± 0.92 | – | 161 to 162 | – | – | – | – | – | – |
| CN1CCN(c2ccc(Nc3nc(Nc4cccc(OC(F)(F)F)c4)c4ncn(CC5CC5)c4n3)cc2)CC1 [Compound 4e, 9-(Cyclopropylmethyl)-N^2-(4-(4-methylpiperazin-1-yl)phenyl)-N^6-(3-(trifluoromethoxy)phenyl)-9H-purine-2,6-diamine] | 420 ± 100 | 4120 ± 900 nM | 2320 | 47.7 ± 19.4 | 5.18 ± 1.68 | 1400 ± 130 | 2880 ± 10 | 12.84 ± 0.03 | 19.5 ± 0.61 | – | 161 to 162 | – | – | – | – | – | – |
